Key:
Type in all cases: physicochemical
[1] = Differential scanning calorimetry (transition point, heat resistance); conditions: DSC endothermic peak indicating phase transition; powder in aluminum pan heated up to 550° C.
Experimental: In the following examples, reactions and measurements in an inert gas atmosphere were conducted with use of a solvent obtained by anhydrous distillation, and other reactions and operations were conducted with use of commercial Grade 1 or Special Grade solvents. The reagents were purified, as required, by anhydrous distillation or the like, and otherwise commercially available Grade 1 or Special Grade reagents were employed. In the examples, following analytical instrument and measurement instrument were employed. The nuclear magnetic resonance spectroscopy was conducted by means of LAMBDA-NMR (395.75 MHz, σ value, ppm, internal standard TMS). The differential scanning calorimetry was conducted by means of a differential scanning calorimeter METTLER-TOLED DSC1.
About 2 mg of each organic compound powder was weighed out and fed hermetically in an aluminum pan. Each sample was set on a differential scanning calorimeter and heated up to 550° C.

[2] = Measurement of solubility in organic solvents at 25° C.; conditions: for Solubility in organic solvent at 25° C., chloroform / Solubility in organic solvent at 25° C., THN / Solubility in organic solvent at 25° C., toluene: visual inspection; for Solubility in organic solvent at 25° C., THN: tetrahydronaphthalene (THN)
Experimental: (§1) About 1 mg of each organic compound powder was weighed and fed into vials, and the weight of the content in each vial was measured precisely. Into these vials, chloroform, toluene, and tetrahydronaphthalene (THN) were added at 25° C. (room temperature). When the added solvent dissolved completely, the mass was measured precisely again. The mass of the organic compound was divided by the total weight of the organic compound and the added solvent, and was multiplied by 100 to obtain solubility. Dissolution or non-dissolution was judged by visual inspection.

[3] = Storage stability in a solution state (solution state after one week); conditions: solutions of the solubility test
Excerpt: The organic compound represented by Formula (A) is required to be soluble in an organic solvent. The organic solvent is not particularly limited as far as being capable of dissolving the organic compound represented by Formula (A). Considering environmental problems and other conditions, the organic solvent is preferably and practically a non-halogenated solvent. Further, considering the stability of a solution obtained by dissolving the organic compound represented by Formula (A) in the organic solvent, the organic compound represented by Formula (A) needs to have reasonably high solubility at room temperature. In the organic solvent, the solubility of the organic compound represented by Formula (A) at 25° C. is usually 0.1 mass % or higher, preferably 0.3 mass % or higher, more preferably 0.5 mass % or higher, and further preferably 0.7 mass % or higher. In chloroform, the solubility of the organic compound represented by Formula (A) at 25° C. is usually 0.1 mass % or higher, preferably 0.3 mass % or higher, more preferably 0.5 mass % or higher, and further preferably 0.7 mass % or higher. In toluene, the solubility of the organic compound represented by Formula (A) at 25° C. is usually 0.1 mass % or higher, preferably 0.3 mass % or higher, more preferably 0.5 mass % or higher, and further preferably 0.7 mass % or higher. In tetrahydronaphthalene, the solubility of the organic compound represented by Formula (A) at 25° C. is usually 0.1 mass % or higher, preferably 0.3 mass % or higher, more preferably 0.5 mass % or higher, and further preferably 0.7 mass % or higher.
as §1

Peak top temperature [1] [°C]	Solubility in the organic solvent at 25° C. relative to the organic compound in Comparative example 2 ([2]; at the maximum, versus Comparative example 2) [times]	Solubility compared with the organic compound in Comparative example 1 ([2]; organic solvent, 25° C., versus Comparative example 1)	Solubility in organic solvent at 25° C., chloroform ([2]; 25° C.) [mass %]	Solubility in organic solvent at 25° C., THN ([2]; 25° C.) [mass %]	Solubility in organic solvent at 25° C., toluene ([2]; 25° C.) [mass %]	Solution state after one week [3]	SMILES
≤ 150							CCCCCCCCCCc1ccc2c(c1)sc1c3ccc(-c4ccccc4)cc3sc21 [Comp. Ex. 3, reference compound]
	≥ 10	higher solubility					CCCCCCc1ccc2cc3sc4c5cc(-c6ccccc6)ccc5sc4c3cc2c1 [Organic compound 1]
218			0.5	0.5	0.5	no precipitation	CCCCc1ccc2sc3c4cc5cc(-c6ccccc6)ccc5cc4sc3c2c1 [Organic compound 4]
186			0.4	0.4	0.4	no precipitation	CCCCCCCCc1ccc2sc3c4cc5cc(-c6ccccc6)ccc5cc4sc3c2c1 [Organic compound 5]
185			0.3	0.3	0.2	no precipitation	CCCCCCCCCCc1ccc2cc3sc4c5cc(-c6ccccc6)ccc5sc4c3cc2c1 [Organic compound 6]
229			>2	1.4	0.9	no precipitation	CCCCCCc1ccc2cc3sc4c5cc(-c6ccc(CC)cc6)ccc5sc4c3cc2c1 [Organic compound 8]
244							CCCCCc1ccc(-c2ccc3sc4c5cc6cc(-c7ccccc7)ccc6cc5sc4c3c2)cc1 [Organic compound 9]

— patent US20180062087A1, “Organic Compound, Organic Semiconductor Material, Organic Thin Film And Method For Producing The Same, Organic Semiconductor Composition, And Organic Semiconductor Device” (Nippon Kayaku Kabushiki Kaisha, priority 2015, published 2018)
